Consider two compounds from PubChem BioAssay AID1259411 (Chemical Carcinogenesis Research Information System (CCRIS), 2018).

In this series the test system is rodent carcinogenicity bioassays, tumor incidence. Nature of the series: CCRIS carcinogenicity studies. The conditions noted are these: Dose: 0, Dose: 0. The gist of the method:
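NCI-built, expert-reviewed records of carcinogenicity and related test outcomes (mutagenicity, tumor promotion/inhibition) compiled from published and report sources, historical span 1985-2011, not updated.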

Calls of active or inactive are those of the source. No rule for the calls is given here.

Consider `O=[N+]([O-])c1ccccc1`, for which the carcinogen call was “active; positive” (Species: MOUSE, Strain/Sex: B6C3F1/FEMALE, Route: INHALATION, 5, 25, 50 PPM 6 HR/D 5 D/WK FOR 2 YR (STUDY DURATION: 2 YR), 5, 25, 50 PPM 6 HR/D 5 D/WK FOR 2 YR (STUDY DURATION: 2 YR), Tumor Site: Type of Lesion: MAMMARY GLAND: ADENOCARCINOMA); “active; positive” (Species: MOUSE, Strain/Sex: B6C3F1/MALE, Route: INHALATION, 5, 25, 50 PPM 6 HR/D 5 D/WK FOR 2 YR (STUDY DURATION: 2 YR), 5, 25, 50 PPM 6 HR/D 5 D/WK FOR 2 YR (STUDY DURATION: 2 YR), Tumor Site: Type of Lesion: LUNG: ADENOMA, ADENOMA OR CARCINOMA, THYROID GLAND: FOLLICULAR CELL ADENOMA); “active; positive” (Species: RAT, Strain/Sex: F344/FEMALE, Route: INHALATION, 1, 5, 25 PPM 6 HR/D 5 D/WK FOR 2 YR (STUDY DURATION: 2 YR), 1, 5, 25 PPM 6 HR/D 5 D/WK FOR 2 YR (STUDY DURATION: 2 YR), Tumor Site: Type of Lesion: UTERUS: ENDOMETRIAL STROMAL POLYP); “active; positive” (Species: RAT, Strain/Sex: F344/MALE, Route: INHALATION, 1, 5, 25 PPM 6 HR/D 5 D/WK FOR 2 YR (STUDY DURATION: 2 YR), 1, 5, 25 PPM 6 HR/D 5 D/WK FOR 2 YR (STUDY DURATION: 2 YR), Tumor Site: Type of Lesion: LIVER: HEPATOCELLULAR ADENOMA, HEPATOCELLULAR ADENOMA OR CARCINOMA, KIDNEY: TUBULAR ADENOMA, TUBULAR ADENOMA OR CARCINOM); “active; positive” (Species: RAT, Strain/Sex: STRAIN-CD/MALE, Route: INHALATION, 1, 5, 25 PPM 6 HR/D 5 D/WK FOR 2 YR (STUDY DURATION: 2 YR), 1, 5, 25 PPM 6 HR/D 5 D/WK FOR 2 YR (STUDY DURATION: 2 YR), Tumor Site: Type of Lesion: LIVER: HEPATOCELLULAR ADENOMA, HEPATOCELLULAR ADENOMA OR CARCINOMA).
As to `CCCCOC(=O)c1ccccc1C(=O)OCc1ccccc1`, the carcinogen call is “inactive; negative” (Species: MOUSE, Strain/Sex: B6C3F1/FEMALE, Route: ORAL, 6000, 12000 PPM IN DIET FOR 103 WK (STUDY DURATION: 105-106 WK), 6000, 12000 PPM IN DIET FOR 103 WK (STUDY DURATION: 105-106 WK)); “inactive; negative” (Species: MOUSE, Strain/Sex: B6C3F1/MALE, Route: ORAL, 6000, 12000 PPM IN DIET FOR 103 WK (STUDY DURATION: 104-106 WK), 6000, 12000 PPM IN DIET FOR 103 WK (STUDY DURATION: 104-106 WK)); “equivocal” (Species: RAT, Strain/Sex: F344/FEMALE, Route: ORAL, 6000, 12000, 24000 PPM IN DIET FOR DURATION OF STUDY (STUDY DURATION: 104 WK), 6000, 12000, 24000 PPM IN DIET FOR DURATION OF STUDY (STUDY DURATION: 104 WK), Tumor Site: Type of Lesion: PANCREAS: ACINAR CELL ADENOMA, URINARY BLADDER: TRANSITIONAL EPITHELIAL PAPILLOMA); “inactive; negative” (Species: RAT, Strain/Sex: F344/FEMALE, Route: ORAL, 24000 PPM IN DIET FOR 105 WK, CONTROL GROUP DIET RESTRICTED TO LIMIT WEIGHTS TO 85% OF AD LIBITUM-FED GROUP (STUDY DU); “inactive; negative” (Species: RAT, Strain/Sex: F344/FEMALE, Route: ORAL, 24000 PPM IN DIET FOR 106 WK, CONTROL AND DOSED GROUP FED AD LIBITUM (STUDY DURATION: 2 YR)); “inactive; negative” (Species: RAT, Strain/Sex: F344/FEMALE, Route: ORAL, 24000 PPM IN DIET FOR 106 WK, CONTROL GROUP WAS WEIGHT-MATCHED TO DOSED GROUP (STUDY DURATION: 2 YR)). Also, the carcinogen call runs as follows: (Species: RAT, Strain/Sex: F344/MALE, Route: ORAL, 3000, 6000, 12000 PPM IN DIET FOR DURATION OF STUDY (STUDY DURATION: 104 WK), 3000, 6000, 12000 PPM IN DIET FOR DURATION OF STUDY (STUDY DURATION: 104 WK), Tumor Site: Type of Lesion: PANCREAS: ACINAR CELL ADENOMA, ACINAR CELL ADENOMA OR CARCINOMA) “active; positive”; (Species: RAT, Strain/Sex: F344/MALE, Route: ORAL, 12000 PPM IN DIET FOR 105 WK, CONTROL AND DOSED GROUPS FED AD LIBITUM (STUDY DURATION 2 YR), Tumor Site: Type of Lesion: PANCREAS(ACINUS): ADENOMA) “active; positive”; (Species: RAT, Strain/Sex: F344/MALE, Route: ORAL, 12000 PPM IN DIET FOR 105 WK, CONTROL GROUP DIET RESTRICTED TO LIMIT WEIGHTS TO 85% OF AD LIBITUM-FED GROUPS (STUDY D) “inactive; negative”; (Species: RAT, Strain/Sex: F344/MALE, Route: ORAL, 12000 PPM IN DIET FOR 105 WK, CONTROL GROUP WAS WEIGHT-MATCHED TO DOSED GROUP (STUDY DURATION: 2 YR), Tumor Site: Type of Lesion: PANCREAS(ACINUS): ADENOMA) “active; positive”; (Species: RAT, Strain/Sex: F344/MALE, Route: ORAL, 12000 PPM IN DIET FOR 128 WK, CONTROL GROUP DIET RESTRICTED TO LIMIT WEIGHTS TO 85% OF AD LIBITUM-FED GROUP (STUDY DU) “inactive; negative”.
